# In patent US11878966B2, “Substituted 4-benzyl and 4-benzoyl piperidine derivates” (89BIO LTD, priority 2015, dated 2024):
# Biological target: T1, recombinant human baculovirus-expressed GST-tagged FASN (Homo sapiens, UniProt P49327)
# T1 construct: GST; host or cells: baculovirus expression system (insect cells implied)
# Test: FASN enzyme activity assay: fluorescence-based detection of CoA with CPM
# Type: biochemical
# Conditions: 5 nM FASN, 150 μM NADPH, 10 μM acetyl-CoA, 25 μM malonyl-CoA, 90 minutes incubation
# From the text: FASN Enzyme activity may be determined by detecting coenzyme A (CoA), a product of FASN-catalyzed synthesis of palmitate from acetyl-CoA and malonyl-CoA with NADPH as a cofactor. The assay is fluorescence-based and measures the interaction of free CoA with 7-diethylamino-3-(4′-malemimidylphenyl)-4-methylcoumarin (CPM; Life Technologies, CA) as described in Chung et al (2008). The coumarin derivative CPM contains a thiol-reactive maleimide that becomes fluorescent upon interaction with the sulfhydryl group of CoA.
# For the example compounds described herein, the reaction was performed in 384-well low volume non-binding platews (Corning, NY) using recombinant human baculovirus-expressed GST-tagged FASN. The 20-μL assay mixture contained 50 mM HEPES (pH 7.5), 5 nM FASN, 150 μM NADPH (Sigma, St. Louis, MO), 10 μM acetyl-CoA (Sigma), 25 μM malonyl-CoA (Sigma) and test compound [diluted in dimethyl sulfoxide (DMSO); 0.5% DMSO final in assay after 100 nL addition]. See, Chung et al.; “A fluorescence-based thiol quantification assay for ultra-high-throughput screening for inhibitors of coenzyme A production,” Assay Drug Dev Tech 2008; 6:361-374.
# The reaction was initiated by adding malonyl-CoA, followed by incubation for 90 minutes at […]. A stock solution of the CPM reagent was prepared in DMSO al 66 μM and stored at […]. To detect CoA produced in the FASN reaction, the CPM stock was diluted to 50 μM in 70% ethanol and added at 4 μL/well to the assay place. The reaction mixture was then incubated for 30 minutes. Fluorescence was measured using the EnVision™ 2102 multi-label plate reader (PerkinElmer, Waltham, MA) utilizing a general dual mirror, a 390 nm excitation filter and a 530 nm emission filter. Data analysis was performed using ActivityBase (IDBS, Guilford, UK). IC50 values were calculated by plotting the percent inhibition versus log 10 of the concentration of the compound, and fitting to the nonlinear regression sigmoidal dose-response (variable slope) equation in XLFit (IDBS).
# T1 sequence (P49327 whole entry): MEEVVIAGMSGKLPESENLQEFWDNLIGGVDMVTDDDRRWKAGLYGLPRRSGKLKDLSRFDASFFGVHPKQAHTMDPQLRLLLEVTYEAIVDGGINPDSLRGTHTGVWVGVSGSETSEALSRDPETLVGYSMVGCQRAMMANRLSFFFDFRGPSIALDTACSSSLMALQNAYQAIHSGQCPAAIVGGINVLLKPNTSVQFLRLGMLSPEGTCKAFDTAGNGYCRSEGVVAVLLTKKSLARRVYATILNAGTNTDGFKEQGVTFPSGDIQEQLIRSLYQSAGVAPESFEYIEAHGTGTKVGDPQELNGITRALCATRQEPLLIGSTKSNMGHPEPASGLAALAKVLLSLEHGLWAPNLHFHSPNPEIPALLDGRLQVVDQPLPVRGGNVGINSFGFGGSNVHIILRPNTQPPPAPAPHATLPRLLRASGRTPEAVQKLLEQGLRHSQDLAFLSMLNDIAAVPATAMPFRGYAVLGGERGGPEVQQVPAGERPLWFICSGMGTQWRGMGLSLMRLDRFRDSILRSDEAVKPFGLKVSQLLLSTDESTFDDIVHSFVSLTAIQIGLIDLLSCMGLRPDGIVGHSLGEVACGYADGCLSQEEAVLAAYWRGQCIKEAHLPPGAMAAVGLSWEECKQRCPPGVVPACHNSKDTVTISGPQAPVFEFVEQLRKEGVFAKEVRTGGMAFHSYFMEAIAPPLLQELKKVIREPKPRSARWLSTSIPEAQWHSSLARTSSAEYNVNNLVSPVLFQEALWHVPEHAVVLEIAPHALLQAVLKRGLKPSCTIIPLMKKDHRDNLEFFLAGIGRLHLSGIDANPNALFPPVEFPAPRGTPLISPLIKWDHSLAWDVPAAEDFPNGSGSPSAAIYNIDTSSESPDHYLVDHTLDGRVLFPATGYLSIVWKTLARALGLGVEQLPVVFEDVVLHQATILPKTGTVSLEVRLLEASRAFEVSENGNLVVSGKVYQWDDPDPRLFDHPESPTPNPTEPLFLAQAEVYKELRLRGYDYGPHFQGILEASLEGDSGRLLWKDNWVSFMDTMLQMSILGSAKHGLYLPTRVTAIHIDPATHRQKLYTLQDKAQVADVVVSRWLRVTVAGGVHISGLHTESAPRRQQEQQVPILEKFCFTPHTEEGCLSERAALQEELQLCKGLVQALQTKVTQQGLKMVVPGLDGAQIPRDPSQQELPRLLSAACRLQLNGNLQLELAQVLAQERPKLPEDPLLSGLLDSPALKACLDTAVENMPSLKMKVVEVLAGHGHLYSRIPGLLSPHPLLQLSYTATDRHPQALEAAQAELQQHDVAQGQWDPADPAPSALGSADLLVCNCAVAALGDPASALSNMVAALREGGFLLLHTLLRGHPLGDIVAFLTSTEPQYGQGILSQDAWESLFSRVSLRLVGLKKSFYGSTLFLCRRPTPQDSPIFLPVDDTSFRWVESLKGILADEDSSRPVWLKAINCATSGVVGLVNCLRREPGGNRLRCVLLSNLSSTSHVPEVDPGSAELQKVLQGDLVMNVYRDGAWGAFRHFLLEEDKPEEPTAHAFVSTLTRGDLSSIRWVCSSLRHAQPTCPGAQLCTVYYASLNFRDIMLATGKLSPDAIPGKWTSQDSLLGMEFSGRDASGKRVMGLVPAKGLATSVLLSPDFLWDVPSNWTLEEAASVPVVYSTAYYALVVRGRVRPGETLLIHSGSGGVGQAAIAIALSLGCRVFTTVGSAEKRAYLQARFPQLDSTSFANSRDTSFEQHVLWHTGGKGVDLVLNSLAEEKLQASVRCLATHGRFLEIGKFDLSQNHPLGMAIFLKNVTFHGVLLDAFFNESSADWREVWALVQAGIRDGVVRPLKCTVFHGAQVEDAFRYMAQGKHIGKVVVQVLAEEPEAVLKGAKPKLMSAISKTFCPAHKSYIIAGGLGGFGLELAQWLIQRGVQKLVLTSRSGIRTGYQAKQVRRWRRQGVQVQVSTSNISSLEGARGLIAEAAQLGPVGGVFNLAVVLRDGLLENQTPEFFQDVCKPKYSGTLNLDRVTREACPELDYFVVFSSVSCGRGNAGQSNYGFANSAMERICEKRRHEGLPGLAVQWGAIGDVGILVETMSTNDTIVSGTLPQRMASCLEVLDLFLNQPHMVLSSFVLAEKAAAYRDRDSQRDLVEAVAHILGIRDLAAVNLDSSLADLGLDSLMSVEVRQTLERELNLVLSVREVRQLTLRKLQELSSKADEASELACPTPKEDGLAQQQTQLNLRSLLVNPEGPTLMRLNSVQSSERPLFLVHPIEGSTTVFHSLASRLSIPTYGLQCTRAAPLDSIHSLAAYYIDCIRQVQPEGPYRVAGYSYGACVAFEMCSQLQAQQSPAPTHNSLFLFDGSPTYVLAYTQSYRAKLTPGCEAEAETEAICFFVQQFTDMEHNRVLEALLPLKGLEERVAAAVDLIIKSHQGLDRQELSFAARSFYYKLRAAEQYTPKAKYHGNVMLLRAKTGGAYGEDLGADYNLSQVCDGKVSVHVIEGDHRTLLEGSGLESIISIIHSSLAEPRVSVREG
row,Compound,IC50
1,"CCCC(c1ccc(-c2cnc3ccccc3c2)cc1)C1CCN(C(=O)CC)CC1 (stereo not shown) [Example 54, 1-{4-[1-(4-Quinolin-3-yl-phenyl)-butyl]-piperidin-1-yl}-propan-1-one]",1 to 99 nM
2,"CCC(=O)N1CCC(C(NC=O)c2ccc(-c3cnc4ccccc4c3)cc2)CC1 (stereo not shown) [Example 55, N-[(1-Propionylpiperidin-4-yl)-(4-quinolin-3-yl-phenyl)-methyl]-formamide]",1000 to 10000 nM
3,"CCC(=O)N1CCC(C)(C(=O)c2ccc(-c3cnc4ccccc4c3)cc2)CC1 [Example 56, 1-[4-Methyl-4-(4-quinolin-3-yl-benzoyl)-piperidin-1-yl]-propan-1-one]",100 to 999 nM
4,"CC(c1ccc(-c2cnc3ccccc3c2)cc1)C1CCN(C(=O)OC(C)(C)C)CC1 (stereo not shown) [Example 57, 4-[1-(4-quinolin-3-yl-phenyl)-ethyl]-piperidine-1-carboxylic Acid t-Butyl Ester]",1000 to 10000 nM
5,"CC(c1ccc(-c2cnc3ccccc3c2)cc1)C1CCN(C(=O)C2CC2)CC1 (stereo not shown) [Example 58, Cyclopropyl-{4-[1-(4-quinolin-3-yl-phenyl)-ethyl]-piperidin-1-yl}-methanone]",1 to 99 nM
6,"CCC(=O)N1CCC(C)(Cc2ccc(-c3cnc4ccccc4c3)cc2)CC1 [Example 59, 1-[4-Methyl-4-(4-quinolin-3-yl-benzyl)-piperidin-1-yl]-propan-1-one]",100 to 999 nM
7,"CC(c1ccc(-c2cnc3ccccc3c2)cc1)C1CCN(C=O)CC1 (stereo not shown) [Example 60, 4-[1-(4-Quinolin-3-yl-phenyl)-ethyl]-piperidine-1-carbaldehyde]",1000 to 10000 nM
8,"CCC(=O)N1CCC(C(c2ccc(-c3cnc4ccccc4c3)cc2)C(C)C)CC1 (stereo not shown) [Example 61, 1-{4-[2-Methyl-1-(4-quinolin-3-yl-phenyl)-propyl]-piperidin-1-yl}-propan-1-one]",100 to 999 nM
9,"CCC(=O)N1CCC(C(C)c2ccc(-c3ccc4cccnc4c3C)cc2)CC1 (stereo not shown) [Example 62, 1-(4-{1-[4-(8-methylquinolin-7-yl)-phenyl]-ethyl}-piperidin-1-yl)-propan-1-one]",1 to 99 nM
10,"Cc1c(-c2ccc(C(C)C3CCN(C(=O)C4CC4)CC3)cc2)ccc2cccnc12 (stereo not shown) [Example 63, Cyclopropyl-(4-{1-[4-(8-methylquinolin-7-yl)-phenyl]-ethyl}-piperidin-1-yl)-methanone]",1 to 99 nM
11,"CCC(=O)N1CCC(C(C)c2ccc(-c3ccc4cccnc4c3OC)cc2)CC1 (stereo not shown) [Example 64, 1-(4-{1-[4-(8-Methoxyquinolin-7-yl)-phenyl]-ethyl}-piperidin-1-yl)-propan-1-one]",1 to 99 nM
12,"CCC(=O)N1CCC(C(C)c2ccc(-c3cnc4ccccc4c3C)cc2)CC1 (stereo not shown) [Example 65, 1-(4-{1-[4-(4-Methylquinolin-3-yl)-phenyl]-ethyl}-piperidin-1-yl)-propan-1-one]",1 to 99 nM
13,"COc1c(-c2ccc(C(C)C3CCN(C(=O)C4CC4)CC3)cc2)ccc2cccnc12 (stereo not shown) [Example 66, Cyclopropyl-(4-{1-[4-(8-methoxyquinolin-7-yl)-phenyl]-ethyl}-piperidin-1-yl)-methanone]",1 to 99 nM
14,"CCC(=O)N1CCC(C(C)c2ccc(-c3ccc4cccnc4c3Cl)cc2)CC1 (stereo not shown) [Example 72, 1-(4-{1-[4-(8-chloroquinolin-7-yl)-phenyl]-ethyl}-piperidin-1-yl)-propan-1-one]",1 to 99 nM
15,"CC(c1ccc(-c2ccc3cccnc3c2Cl)cc1)C1CCN(C(=O)C2CC2)CC1 (stereo not shown) [Example 73, (4-{1-[4-(8-Chloroquinolin-7-yl)-phenyl]-ethyl}-piperidin-1-yl)-cyclopropylmethanone]",1 to 99 nM
16,"CCC(=O)N1CCC(C(C)c2ccc(-c3cnc4ccccc4c3Cl)cc2)CC1 (stereo not shown) [Example 75, 1-(4-{1-[4-(4-Chloroquinolin-3-yl)-phenyl]-ethyl}-piperidin-1-yl)-propan-1-one]",1 to 99 nM
17,"CC(c1ccc(-c2cnc3ccccc3c2Cl)cc1)C1CCN(C(=O)C2CC2)CC1 (stereo not shown) [Example 76, (4-{1-[4-(4-Chloroquinolin-3-yl)-phenyl]-ethyl}-piperidin-1-yl)-cyclopropylmethanone]",1 to 99 nM
18,"Cc1nccc2cc(-c3ccc(C4(C5CCN(C(=O)[C@H]6CCCO6)CC5)CC4)cc3)ccc12 [Example 78, (4-{1-[4-(1-Methylisoquinolin-6-yl)-phenyl]-cyclopropyl}-piperidin-1-yl)-(R)-tetrahydrofuran-2-yl-methanone]",1000 to 10000 nM
19,"Cc1c(-c2ccc(C3(C4CCN(C(=O)[C@H]5CCCO5)CC4)CC3)cc2)ccc2cccnc12 [Example 79, (4-{1-[4-(8-Methylquinolin-7-yl)-phenyl]-cyclopropyl}-piperidin-1-yl)-(R)-tetrahydrofuran-2-yl-methanone]",1000 to 10000 nM
20,"COCCOC(c1ccc(-c2ccc3cccnc3c2C)cc1)C1CCN(C(=O)[C@H]2CCCO2)CC1 (stereo partly drawn) [Example 80, (4-{(2-Methoxyethoxy)-[4-(8-methyl-quinolin-7-yl)-phenyl]-methyl}-piperidin-1-yl)-(R)-tetrahydrofuran-2-yl-methanone]",1 to 99 nM
21,"CCC(=O)N1CCC(C(OCCOC)c2ccc(-c3ccc4cccnc4c3C)cc2)CC1 (stereo not shown) [Example 81, 1-(4-{(2-Methoxyethoxy)-[4-(8-methyl-quinolin-7-yl)-phenyl]-methyl}-piperidin-1-yl)-propan-1-one]",1 to 99 nM
22,"COCCOC(c1ccc(-c2cnc3ccccc3c2C)cc1)C1CCN(C(=O)[C@H]2CCCO2)CC1 (stereo partly drawn) [Example 83, (4-{(2-Methoxyethoxy)-[4-(4-methyl-quinolin-3-yl)-phenyl]-methyl}-piperidin-1-yl)-(R)-tetrahydrofuran-2-yl-methanone]",1 to 99 nM
23,"Cc1c(-c2ccc(C(OCCCN3CCOCC3)C3CCN(C(=O)[C@H]4CCCO4)CC3)cc2)ccc2cccnc12 (stereo partly drawn) [Example 84, {4-[[4-(8-Methylquinolin-7-yl)-phenyl]-(3-morpholin-4-yl-propoxy)-methyl]-piperidin-1-yl}-(R)-tetrahydrofuran-2-yl-methanone]",1 to 99 nM
24,"CCC(=O)N1CCC(C(OCCCN2CCOCC2)c2ccc(-c3ccc4cccnc4c3C)cc2)CC1 (stereo not shown) [Example 85, 1-{4-[[4-(8-Methylquinolin-7-yl)-phenyl]-(3-morpholin-4-yl-propoxy)-methyl]-piperidin-1-yl}-propan-1-one]",1 to 99 nM
25,"Cc1nccc2cc(-c3ccc(C(OCCCN4CCOCC4)C4CCN(C(=O)[C@H]5CCCO5)CC4)cc3)ccc12 (stereo partly drawn) [Example 86, {4-[[4-(1-Methylisoquinolin-6-yl)-phenyl]-(3-morpholin-4-yl-propoxy)-methyl]-piperidin-1-yl}-(R)-tetrahydrofuran-2-yl-methanone]",100 to 999 nM
26,Cc1c(-c2ccc(C(OCCCN3CCOCC3)C3CCN(C(=O)[C@H]4CCCO4)CC3)cc2)cnc2ccccc12 (stereo partly shown) [Example 87],1 to 99 nM
27,"O=C([C@H]1CCCO1)N1CCC(C(OCCN2CCCC2)c2ccc(-c3cnc4ccccc4c3)cc2)CC1 (stereo partly drawn) [Example 88, {4-[(2-Pyrrolidin-1-yl-ethoxy)-(4-quinolin-3-yl-phenyl)-methyl]-piperidin-1-yl}-(R)-tetrahydrofuran-2-yl-methanone]",100 to 999 nM
28,"Cc1c(-c2ccc(C(OCCN3CCCC3)C3CCN(C(=O)[C@H]4CCCO4)CC3)cc2)ccc2cccnc12 (stereo partly drawn) [Example 89, {4-[[4-(8-Methylquinolin-7-yl)-phenyl]-(2-pyrrolidin-1-yl-ethoxy)-methyl]-piperidin-1-yl}-(R)-tetrahydrofuran-2-yl-methanone]",1 to 99 nM
